Among the data in patent US8669271B2 (Boehringer Ingelheim International GmbH, priority 2010, dated 2014) are EC50 values, retold here.

By EC50 is commonly meant the concentration at which the effect is half-maximal. High values mean weaker potency, low ones greater potency.

Molecules are shown by their SMILES.

In the test the target is T1, human GPR119 (Homo sapiens, UniProt Q8TDV5).
T1 construct: expression vector for human GPR119 cDNA (Acc. No. NP_848566); expressed in transfected cells
T1 sequence (Q8TDV5 1-335): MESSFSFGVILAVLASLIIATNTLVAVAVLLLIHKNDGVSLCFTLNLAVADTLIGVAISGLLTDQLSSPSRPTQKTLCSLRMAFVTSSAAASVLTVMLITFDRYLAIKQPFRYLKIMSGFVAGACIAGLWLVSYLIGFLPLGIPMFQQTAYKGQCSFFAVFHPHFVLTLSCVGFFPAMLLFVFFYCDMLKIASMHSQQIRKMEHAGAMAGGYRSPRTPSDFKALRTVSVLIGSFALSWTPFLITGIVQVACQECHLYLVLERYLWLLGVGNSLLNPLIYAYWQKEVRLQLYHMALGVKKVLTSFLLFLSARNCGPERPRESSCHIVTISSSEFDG
In words: AlphaScreen cAMP assay in Min-6/hGPR119 cells (activation of GPR119, intracellular cAMP). It counts as cell-based. The conditions noted are these: MIN6 cells stably transfected with human GPR119; cAMP by AlphaScreen after 45 minutes incubation at room temperature. As to the method:
The compounds of formula I according to the invention modulate the activity of the G-protein-coupled receptor GPR119. The effect of the compounds on the activation of GPR119 and on the stimulation of intracellular cAMP concentration is determined using the AlphaScreen cAMP Assay Kit (Cat.No.#6760625R) made by PerkinElmer.
MIN6 cells [Miyazaki J et al. Endocrinology. 1990 July; 127(1):126-32] are stably transfected with an expression vector for human GPR119 cDNA (Acc. No. NP_848566). Min-6/hGPR119 cells are cultured in DMEM, 10% FBS, 50 μM β-mercaptoethanol, 0.3 mg/mL Geniticin, 2 mM GlutaMAX at 37° C. 5% CO2. For the assay, the cells are seeded in Optiplates (white, 384-well, 160W— barcoded, TC, sterile with lid, Cat.No.#6007688 (Perkin Elmer); 10000 cells/well; 50 μl). The plates covered with lids are then incubated for 24 hours at 37° C./5% CO2. After the medium is aspirated from the wells completely, 10 μl of the test compound are added, the compounds are diluted using stimulating buffer (140 mM NaCl, 3.6 mM KCl, 0.5 mM NaH2PO4, 0.5 mM MgSO4, 1.5 mM CaCl2, 10 mM Hepes, 5 mM NaHCO3; pH 7.4. 0.5 mM IBMX and 0.1% BSA, the final DMSO concentration is 1%). After 45 minutes incubation at room temperature (approx. 20° C.), the cAMP concentrations are determined using the AlphaScreen cAMP Assay Kit (Cat.No.#6760625R from PerkinElmer).
For orientation: In Alpha technology, singlet oxygen from a donor bead excites a nearby acceptor bead.
Regarding `CC(C)OC(=O)N1CCC([C@]2(C)Cc3cc(C4=CCN(S(C)(=O)=O)CC4)ncc3O2)CC1` [Example 89, (S)-4-[5-(1-Methanesulfonyl-1,2,3,6-tetrahydro-pyridin-4-yl)-2-methyl-2,3-dihydro-furo[2,3-c]pyridin-2-yl]-piperidine-1-carboxylic acid isopropyl ester], it took 7 nM to reach a half-maximal effect (EC50). That is a single-digit nanomolar value.

On to `CS(=O)(=O)c1ccc(-c2ccc3c(c2)CC(C2CCN(C(=O)OC4CCC4)CC2)O3)cc1` (centres unmarked) [Example 5, 4-[5-(4-Methanesulfonyl-phenyl)-2,3-dihydro-benzofuran-2-yl]-piperidine-1-carboxylic acid cyclobutyl ester], for which the EC50 was 18 nM.

`Cc1cc([S+](C)[O-])ccc1-c1ccc2c(c1)CC(C1CCN(C(=O)OC(C)C)CC1)O2` (centres unmarked) [Example 11, 4-[5-(4-Methanesulfinyl-2-methyl-phenyl)-2,3-dihydro-benzofuran-2-yl]-piperidine-1-carboxylic acid isopropyl ester]: a half-maximal response (EC50) required 299 nM.

`CC(O)CCNC(=O)c1ccc(-c2ccc3c(c2)CC(C2CCN(C(=O)OC(C)C)CC2)O3)cc1` (centres unmarked) [Example 125]: a half-maximal response (EC50) required 110 nM. This EC50 lies about 2.7-fold lower than the previous one.

Regarding `CC(C)(C)OC(=O)N1CCC(C2Cc3cc(-c4ccc(CS(C)(=O)=O)cn4)ccc3O2)CC1` (centres unmarked) [Example 48, 4-[5-(5-Methanesulfonylmethyl-pyridin-2-yl)-2,3-dihydro-benzofuran-2-yl]-piperidine-1-carboxylic acid tert-butyl ester], the concentration giving a half-maximal response (EC50) was 53 nM.

In the case of `COCCN(C)C(=O)c1ccc(-c2ccc3c(c2)CC(C2CCN(C(=O)OC(C)C)CC2)O3)cc1` (centres unmarked) [Example 123, 4-(5-{4-[(2-Methoxy-ethyl)-methyl-carbamoyl]-phenyl}-2,3-dihydro-benzofuran-2-yl)-piperidine-1-carboxylic acid isopropyl ester], the concentration giving a half-maximal response (EC50) is 30 nM.

`CC(C)(C)OC(=O)N1CCC(C2Cc3cc(-c4ccc(C#N)cc4F)ncc3O2)CC1` (centres unmarked) [Example 29, 4-[5-(4-Cyano-2-fluoro-phenyl)-2,3-dihydro-furo[2,3-c]pyridin-2-yl]-piperidine-1-carboxylic acid tert-butyl ester] yielded an EC50 of 12 nM.

In turn, `CC(C)(C)OC(=O)N1CCC(C2Cc3cc(-c4ccc(C(N)=O)cc4F)ncc3O2)CC1` (centres unmarked) [Example 26, 4-[5-(4-Carbamoyl-2-fluoro-phenyl)-2,3-dihydro-furo[2,3-c]pyridin-2-yl]-piperidine-1-carboxylic acid tert-butyl ester] returned an EC50 of 88 nM.

Compound `CC(C)OC(=O)N1CCC(C2Cc3cc(-c4ccc(C(=O)N(C)C5CCCOC5)cc4)ccc3O2)CC1` (centres unmarked) [Example 139] returned an EC50 of 52 nM.

Take `CC(C)OC(=O)N1CCC(C2Cc3cc(-c4ccc(C(=O)NCC(C)(C)CO)cc4)ccc3O2)CC1` (centres unmarked) [Example 151]: the response was half-maximal at 47 nM (EC50). The EC50 values of the last two compounds are within 1.5-fold of each other.

Regarding `COc1cc(-c2ccc3c(c2)CC(C2CCN(C(=O)OC(C)C)CC2)O3)ccc1NC(C)=O` (centres unmarked) [Example 179], the half-maximal effective concentration (EC50) was 118 nM.

The compound `CC(C)(C)OC(=O)N1CCC(C2Cc3cc(C4=CCN(S(C)(=O)=O)CC4)ncc3O2)CC1` (centres unmarked) [Example 92, 4-[5-(1-Methanesulfonyl-1,2,3,6-tetrahydro-pyridin-4-yl)-2,3-dihydro-furo[2,3-c]pyridin-2-yl]-piperidine-1-carboxylic acid tert-butyl ester] had an EC50 of 12 nM.

`CC(C)(C)OC(=O)N1CCC(C2Cc3cc(-c4ccc(NS(C)(=O)=O)cc4)ncc3O2)CC1` (centres unmarked) [Example 37, 4-[5-(4-Methanesulfonylamino-phenyl)-2,3-dihydro-furo[2,3-c]pyridin-2-yl]-piperidine-1-carboxylic acid tert-butyl ester] returned an EC50 of 31 nM.

For the compound `CC(C)(C)OC(=O)N1CCC(C2Cc3cc(-c4cnco4)ncc3O2)CC1` (centres unmarked) [Example 39, 4-(5-Oxazol-5-yl-2,3-dihydro-furo[2,3-c]pyridin-2-yl)-piperidine-1-carboxylic acid tert-butyl ester], a half-maximal response (EC50) required 152 nM. Against the preceding compound, the EC50 is about 4.9-fold higher.
